Entries after “also recorded” stand apart in the source; their conditions may differ. Read-outs that look alike come from different tables or passages of the source.
Tests used:
Shiga toxin [1] = biological target: T1, Shiga toxin (Shigella dysenteriae, UniProt Q7BQ98); details: cited from earlier work
Shiga toxin [2] = biological target: T1, Shiga toxin; details: cited from earlier work; remark: listed apart in the source
verocytotoxin 1 = verocytotoxin 1 (Bacteriophage H30, UniProt P69178)
VT2 [3] = biological target: T2, VT2 (Escherichia coli, UniProt Q07871); format: binding, E. coli
VT1 toxin = VT1 toxin (Bacteriophage H30, UniProt P69178)
VT2 [4] = biological target: T2, VT2; format: cell-based, E. coli
[5] = natural verocytotoxin, glycolipid dotted at 0.01-50 nmol
[6] = purified natural VT1, tlc or dot blot, antiverocytotoxin and immunoperoxidase conjugate

T1 sequence (Q7BQ98 whole entry, looked up): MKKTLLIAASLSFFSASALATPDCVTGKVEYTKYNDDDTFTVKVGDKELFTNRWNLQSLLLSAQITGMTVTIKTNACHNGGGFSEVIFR
verocytotoxin 1, sequence (P69178 whole entry, looked up): as the sequence (Q7BQ98 whole entry, looked up) above
VT1 toxin, sequence (P69178 whole entry, looked up): as the sequence (Q7BQ98 whole entry, looked up) above

## N[C@H]1[C@H](O[C@H]2[C@H](O)[C@@H](N)[C@H](O[C@H]3[C@H](O)[C@@H](N)C(O)O[C@@H]3CO)O[C@@H]2CO)O[C@H](CO)[C@@H](O)[C@@H]1O (stereo partly drawn) [chiotriose]
Shiga toxin [1]
  protection against Shiga toxin cytotoxicity: protects against cytotoxicity
Shiga toxin [2]
  effect on Shiga toxin Gb0se3 cer binding: little effect

## CCCCCCCCCCCCCC=CC(O)C(CO[C@@H]1O[C@H](CO)[C@@H](O[C@@H]2O[C@H](CO)[C@H](O)[C@H](O)[C@H]2O)[C@H](O)[C@H]1O)NC(=O)CCCCCCCCCCCCCCC (stereo partly drawn) [LacCer, lactosyl ceramide]
Verocytotoxin 1; [5]
  verocytotoxin binding above background (125I-Protein A binding curves): No binding above background
Verocytotoxin 1; [6]
  verocytotoxin binding to glycolipid: No binding
VT2 [3]
  VT2 binding to glycolipid: no binding

## digalactosyl diglyceride [DGDG]
Verocytotoxin 1
  verocytotoxin binding above background (125I-Protein A binding curves): No binding above background
  verocytotoxin binding to glycolipid: unreactive with the toxin
VT2 [3]
  VT2 binding to glycolipid: loss of VT2 binding; also recorded: do not bind

## CCCCCCCCCCCCCC=CC(O)C(CO[C@@H]1O[C@H](CO)[C@H](O[C@H]2O[C@H](CO)[C@H](O)[C@H](O)[C@H]2O)[C@H](O)[C@H]1O)NC(=O)CCCCCCCCCCCCCCC (stereo partly drawn) [galabiosyl ceramide]
Verocytotoxin 1; glycolipids contained in Daudi cells
  VT1 binding to Daudi cell glycolipids: VT1-binding
VT2 [3]
  VT2 binding after digestion with αgalactosidase: binding is removed
  VT2 binding to glycolipid: binds

## CCCCCCCCCCCCC/C=C/[C@@H](O)[C@@H](N)CO[C@@H]1O[C@H](CO)[C@@H](O[C@@H]2O[C@H](CO)[C@H](O[C@H]3O[C@H](CO)[C@H](O)[C@H](O)[C@H]3O)[C@H](O)[C@H]2O)[C@H](O)[C@H]1O [deacylated globotriosyl ceramide]
VT1 toxin
  amount of purified toxin the assay can detect: less than 5 pg
  effect of deacylation on verocytotoxin binding: does not inhibit verocytotoxin binding

## CCCCCCCCCCCCCC=CC(O)C(COC1OC(CO)C(OC2OC(CO)C(OC3OC(CO)C(O)C(OC4OC(CO)C(O)C(O)C4NC(C)=O)C3O)C(O)C2O)C(O)C1O)NC(=O)CCCCCCCCCCCCCCC (stereo not drawn) [GbOse4 cer, globotetraosyl ceramide]
VT2 [4]
  VT2 binding by liposomal adsorption: at least minimal
Verocytotoxin 1; [5]
  verocytotoxin binding above background (125I-Protein A binding curves): No binding above background
Verocytotoxin 1; [6]
  verocytotoxin binding to glycolipid: No binding
Shiga toxin [2]
  Shiga toxin binding to glycolipid: residual binding
VT2 [3]
  VT2 binding to glycolipid: no binding; also recorded: does not bind
